From ChEMBL document CHEMBL1128940, “Dual inhibition of angiotensin-converting enzyme and neutral endopeptidase by tricyclic benzazepinone thiols” (Bioorg Med Chem Lett, 1996)

Tests used:
Neprilysin = Neprilysin (Homo sapiens, UniProt P08473); test: Inhibition of neutral endopeptidase
[1] = target: Angiotensin-converting enzyme (Homo sapiens, UniProt P12821+Q9BYF1); test: Inhibition of Angiotensin I converting enzyme; type: protein assay

Chain of Neprilysin (P08473 whole entry): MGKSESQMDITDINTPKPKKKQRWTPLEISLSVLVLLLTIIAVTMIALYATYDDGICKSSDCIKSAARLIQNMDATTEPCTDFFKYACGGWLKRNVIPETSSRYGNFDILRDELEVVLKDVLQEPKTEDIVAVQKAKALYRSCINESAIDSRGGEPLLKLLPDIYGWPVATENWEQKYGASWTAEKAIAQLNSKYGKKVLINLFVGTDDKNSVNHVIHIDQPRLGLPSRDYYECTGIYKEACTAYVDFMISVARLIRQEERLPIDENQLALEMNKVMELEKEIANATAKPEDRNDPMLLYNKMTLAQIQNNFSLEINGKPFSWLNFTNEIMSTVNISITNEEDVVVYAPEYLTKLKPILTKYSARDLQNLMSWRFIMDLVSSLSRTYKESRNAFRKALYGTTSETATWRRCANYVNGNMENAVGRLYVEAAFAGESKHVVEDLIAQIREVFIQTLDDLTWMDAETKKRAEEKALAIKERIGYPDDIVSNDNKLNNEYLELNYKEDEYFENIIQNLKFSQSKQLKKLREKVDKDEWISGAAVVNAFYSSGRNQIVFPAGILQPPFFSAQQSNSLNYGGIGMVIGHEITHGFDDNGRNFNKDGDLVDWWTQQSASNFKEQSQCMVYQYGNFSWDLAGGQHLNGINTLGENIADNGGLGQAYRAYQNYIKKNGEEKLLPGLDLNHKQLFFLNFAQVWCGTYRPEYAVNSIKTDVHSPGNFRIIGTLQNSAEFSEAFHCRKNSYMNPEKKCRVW

Structure (SMILES) | IC50 (Neprilysin) [nM] | IC50 [1] [nM]
C[C@H](S)C(=O)NC1CCc2cccc3c2N(C1=O)[C@H](C(=O)O)C3 (some centres not stated) | > 1000 | 165
O=C(N[C@@H]1CCc2cccc3c2N(C1=O)[C@H](C(=O)O)C3)[C@@H](S)Cc1ccccc1 | > 1000 | 62
O=C(N[C@H]1CCc2cccc3c2N(C1=O)[C@H](C(=O)O)C3)[C@@H](S)Cc1ccccc1 | 48 | 40
O=C(O)[C@@H]1Cc2cccc3c2N1C(=O)C(NC(=O)C1(S)Cc2ccccc2C1)CC3 (some centres not stated) | 505 | > 1000
O=C(NC1CCc2cccc3c2N(C1=O)[C@H](C(=O)O)C3)[C@H](S)Cc1ccccc1 (some centres not stated) | 83 | 283
O=C(NC1CCc2cccc3c2N(C1=O)[C@H](C(=O)O)C3)[C@@H](S)Cc1ccc(-c2ccccc2)cc1 (some centres not stated) | > 1000 | 89
CC[C@@H](C)[C@H](S)C(=O)NC1CCc2cccc3c2N(C1=O)[C@H](C(=O)O)C3 (some centres not stated) | > 1000 | 41
O=C(NC1CCc2cccc3c2N(C1=O)[C@H](C(=O)O)C3)[C@@H](S)C1CCCCC1 (some centres not stated) | > 1000 | < 100
CC(C)(S)C(=O)NC1CCc2cccc3c2N(C1=O)[C@H](C(=O)O)C3 (some centres not stated) | > 1000 | > 1000
CC(C)[C@H](S)C(=O)NC1CCc2cccc3c2N(C1=O)[C@H](C(=O)O)C3 (some centres not stated) | 940 | 30
O=C(CS)NC1CCc2cccc3c2N(C1=O)[C@H](C(=O)O)C3 (some centres not stated) | > 1000 | 
O=C(O)[C@@H]1Cc2cccc3c2N1C(=O)C(NC(=O)C1(S)CCCC1)CC3 (some centres not stated) | > 1000 | 253
O=C(N[C@H]1CCc2cccc3c2N(C1=O)[C@H](C(=O)O)C3)C(CS)Cc1ccc(-c2ccccc2)cc1 (stereo in doubt; 4m (S)) | 15 | 77
O=C(N[C@H]1CCc2cccc3c2N(C1=O)[C@H](C(=O)O)C3)C(CS)Cc1ccc(-c2ccccc2)cc1 (stereo in doubt; 4n (S)) | 12 | 1120
